The values that follow come from patent US10941158B2, “Pyrazole ACC inhibitors and uses thereof” (Gilead Apollo, LLC, priority 2015, dated 2021).

The target in one assay is human (hACC2) ACC2 (Homo sapiens, UniProt O00763). The experiment in a line: In vitro Acetyl-CoA Carboxylase (ACC) inhibition assay (ADP-Glo), hACC2. The format is biochemical. As for the experimental part: The detailed procedure is as follows. […] 10 μL ADP glo reagent was added. […] 20 μL kinase detection reagent was added.
“NA” stands for “not assayed.”
Background: ADP-Glo first removes unused ATP, then detects ADP through luciferase.

Another assay relates to C. albicans ATCC 90028. Briefly: Anti-Fungal (Candida) Activity Assay, broth microtiter MIC. It counts as cell-based. Conditions: ATCC90028, 3 replicates, MIC recorded at 48 h, read-out: MIC C. albicans ATCC 90028. As for the experimental part:
(§1) Compounds of the present invention were evaluated in an Anti-Fungal Activity Assay. An exemplary procedure for the assay, which measures the susceptibility of various Candida species to anti-fungal compounds, follows. Compounds to be tested (including fluconazole and amphotericin B) were dissolved in DMSO to obtain a solution having a concentration of 1 mg/mL. […] All species were grown from frozen stock by directly plating on to freshly prepared Sabouraud Dextrose agar (BD, Difco) and incubated overnight in ambient air at 35° C. for 24 h. A direct suspension was prepared in RPMI 1640+MOPS (Lonza, Biowhittaker) by taking individual colonies from the overnight cultures using sterile swabs soaked in sterile saline. The concentration of the suspension was determined using pre-determined standard curves. […] Broth microtiter MIC challenge plates were prepared following CLSI guidelines (M27-A3, Vol. 28 No. 14). The original CLSI guidelines focused on reading Candida MICs after 48 h of incubation. As reading after only 24 h offers a clear advantage of patient care, QC limits are being established for all drugs at 24 h. That being said there are no known interpretive breakpoints for amphotericin B at 24 h and the current fluconazole interpretive breakpoints are based on a 48 h reading. The MIC for the test compounds were recorded at 48 h. All MIC determinations were achieved by visually comparing the growth found in the antibiotic challenged wells to that of the growth control.

The test system of a further assay is C. krusei ATCC 6258. The assay is described as above. The format is cell-based. Conditions: Pichia kudriavzevii, ATCC6258; 3 replicates, MIC recorded at 48 h; read-out: MIC C. krusei ATCC 6258. As to the method: as §1
Assay [1] concerns C. parapsilosis ATCC 22019. Described as above. The format is cell-based. Conditions: Lodderomyces parapsilosis, ATCC22019; 3 replicates, MIC recorded at 48 h; read-out: MIC C. parapsilosis ATCC 22019. As for the experimental part: as §1
The test system of the next assay is Botrtyis cinerea (Bc). The experiment in a line: Growth inhibition assay of fungal pathogens. It counts as cell-based. Conditions: 48 h, read-out: Concentration at 90% Inhibition Bc. As to the method:
(§2) Compounds of the present invention were evaluated in a growth inhibition assay to determine the ability to control the growth of fungal pathogens, such as Botrtyis cinerea (Bc), Collectotrichum graminicola (Cg). Diplodia maydis (Dm), Fusarium moniliforme (Fm), Fusarium virguliforme (Fv), Phytophthora capsici (Pc), Rhizoctonia solani (Rs), and Septoria tritici (St). Compounds to be tested were dissolved in DMSO at 2.5 mg/ml to produce compound stock solutions (“stocks”). Stocks were diluted with DMSO by a five-fold dilution in a 96-well stock plate, and two sets of final concentrations of 50, 10, and 2 ppm or 2, 0.4, and 0.08 ppm were obtained in vitro. A set of positive controls was also prepared, with various concentrations of Soraphen (2, 0.4, and 0.08 ppm), Metalaxyl (1.1, 0.22, and 0.04 ppm), and Metconazole (2, 0.4, and 0.08 ppm or 0.2, 0.04, and 0.008 ppm) after the five-fold dilutions. Negative controls on each plate included 2% DMSO, water, and a blank (media+2% DMSO). Fungal spores were isolated from previously sub-cultured plates of Botrtyis cinerea (Bc). Collectotrichum graminicola (Cg). Diplodia maydis (Dm), Fusarium moniliforme (Fm), Fusarium virguliforme (Fv), Phytophthora capsici (Pc), and Septoria tritici (St). The isolated spores were diluted to individual concentrations with a 17% V8 liquid media. For Rhizoctonia solani (Rs) and Pythium irregulare, 1.5 mm mycelial plugs were used in place of spores and ¼ Potato Dextrose Broth (PDB) was used for dilution. The spore concentrations and plug sizes were based on growth curves generated at 48 hours for each pathogen. In a second 96-well plate, the spores or mycelial plugs, media, diluted compound solutions, and controls were combined. Once the compound was added, a true final concentration of compound in each well was measured by an OD600 reading, which adjusted for any compound precipitation that might have occurred in the well. Plate readings were repeated at both 24 and 48 hours. The blank negative control was used as a background subtraction. Additional visual ratings were performed at both 24 and 48 hours for checking on precipitation and confirming efficacy. Visual and OD600 ratings of the compounds at 48 hours were compared to the 2% DMSO negative control, and the percent of pathogen growth inhibition was determined based on those values.

The subject of assay [2] is Collectotrichum graminicola (Cg). Briefly: Growth inhibition assay of fungal pathogens. Conditions: 48 h, read-out: Concentration at 90% Inhibition Cg. The format is cell-based. As to the method:
as §2

The next assay deals with Diplodia maydis (Dm). The experiment in a line: Growth inhibition assay of fungal pathogens. The format is cell-based. Conditions: Stenocarpella maydis, 48 h, read-out: Concentration at 90% Inhibition Dm. As to the method: as §2
Assay [3] deals with Fusarium moniliforme (Fm). The experiment in a line: Growth inhibition assay of fungal pathogens. It counts as cell-based. Conditions: Fusarium verticillioides, 48 h, 48 hours, read-out: Concentration at 90% Inhibition Fm. As to the method: as §2
Assay [4] relates to Fusarium virguliforme (Fv). Briefly: Growth inhibition assay of fungal pathogens. It counts as cell-based. Conditions: 48 h, 48 hours, read-out: Concentration at 90% Inhibition Fv. As to the method: as §2
Assay [5] relates to Phytophthora capsici (Pc). Briefly: Growth inhibition assay of fungal pathogens. The format is cell-based. Conditions: 48 hours; for IC90: Phytophthora capsici, Table 4a, read-out: Concentration at 90% Inhibition Pc; for Concentration at 90% Inhibition Pc: Table 4b. As for the experimental part: as §2
A further assay deals with Rhizoctonia solani (Rs). Briefly: Growth inhibition assay of fungal pathogens. Conditions: 48 h, read-out: Concentration at 90% Inhibition Rs. It counts as cell-based. As for the experimental part: as §2
The subject of the next assay is Septoria tritici (St). The experiment in a line: Growth inhibition assay of fungal pathogens. It counts as cell-based. Conditions: 48 hours; for Concentration at 90% Inhibition St: Table 4b; for IC90: Zymoseptoria tritici, Table 4a, read-out: Concentration at 90% Inhibition St. As to the method: as §2

≈ marks a conversion by molar mass, not a printed value. Read-outs that look alike come from different tables or passages of the source.

human (hACC2) ACC2, sequence (O00763 whole entry): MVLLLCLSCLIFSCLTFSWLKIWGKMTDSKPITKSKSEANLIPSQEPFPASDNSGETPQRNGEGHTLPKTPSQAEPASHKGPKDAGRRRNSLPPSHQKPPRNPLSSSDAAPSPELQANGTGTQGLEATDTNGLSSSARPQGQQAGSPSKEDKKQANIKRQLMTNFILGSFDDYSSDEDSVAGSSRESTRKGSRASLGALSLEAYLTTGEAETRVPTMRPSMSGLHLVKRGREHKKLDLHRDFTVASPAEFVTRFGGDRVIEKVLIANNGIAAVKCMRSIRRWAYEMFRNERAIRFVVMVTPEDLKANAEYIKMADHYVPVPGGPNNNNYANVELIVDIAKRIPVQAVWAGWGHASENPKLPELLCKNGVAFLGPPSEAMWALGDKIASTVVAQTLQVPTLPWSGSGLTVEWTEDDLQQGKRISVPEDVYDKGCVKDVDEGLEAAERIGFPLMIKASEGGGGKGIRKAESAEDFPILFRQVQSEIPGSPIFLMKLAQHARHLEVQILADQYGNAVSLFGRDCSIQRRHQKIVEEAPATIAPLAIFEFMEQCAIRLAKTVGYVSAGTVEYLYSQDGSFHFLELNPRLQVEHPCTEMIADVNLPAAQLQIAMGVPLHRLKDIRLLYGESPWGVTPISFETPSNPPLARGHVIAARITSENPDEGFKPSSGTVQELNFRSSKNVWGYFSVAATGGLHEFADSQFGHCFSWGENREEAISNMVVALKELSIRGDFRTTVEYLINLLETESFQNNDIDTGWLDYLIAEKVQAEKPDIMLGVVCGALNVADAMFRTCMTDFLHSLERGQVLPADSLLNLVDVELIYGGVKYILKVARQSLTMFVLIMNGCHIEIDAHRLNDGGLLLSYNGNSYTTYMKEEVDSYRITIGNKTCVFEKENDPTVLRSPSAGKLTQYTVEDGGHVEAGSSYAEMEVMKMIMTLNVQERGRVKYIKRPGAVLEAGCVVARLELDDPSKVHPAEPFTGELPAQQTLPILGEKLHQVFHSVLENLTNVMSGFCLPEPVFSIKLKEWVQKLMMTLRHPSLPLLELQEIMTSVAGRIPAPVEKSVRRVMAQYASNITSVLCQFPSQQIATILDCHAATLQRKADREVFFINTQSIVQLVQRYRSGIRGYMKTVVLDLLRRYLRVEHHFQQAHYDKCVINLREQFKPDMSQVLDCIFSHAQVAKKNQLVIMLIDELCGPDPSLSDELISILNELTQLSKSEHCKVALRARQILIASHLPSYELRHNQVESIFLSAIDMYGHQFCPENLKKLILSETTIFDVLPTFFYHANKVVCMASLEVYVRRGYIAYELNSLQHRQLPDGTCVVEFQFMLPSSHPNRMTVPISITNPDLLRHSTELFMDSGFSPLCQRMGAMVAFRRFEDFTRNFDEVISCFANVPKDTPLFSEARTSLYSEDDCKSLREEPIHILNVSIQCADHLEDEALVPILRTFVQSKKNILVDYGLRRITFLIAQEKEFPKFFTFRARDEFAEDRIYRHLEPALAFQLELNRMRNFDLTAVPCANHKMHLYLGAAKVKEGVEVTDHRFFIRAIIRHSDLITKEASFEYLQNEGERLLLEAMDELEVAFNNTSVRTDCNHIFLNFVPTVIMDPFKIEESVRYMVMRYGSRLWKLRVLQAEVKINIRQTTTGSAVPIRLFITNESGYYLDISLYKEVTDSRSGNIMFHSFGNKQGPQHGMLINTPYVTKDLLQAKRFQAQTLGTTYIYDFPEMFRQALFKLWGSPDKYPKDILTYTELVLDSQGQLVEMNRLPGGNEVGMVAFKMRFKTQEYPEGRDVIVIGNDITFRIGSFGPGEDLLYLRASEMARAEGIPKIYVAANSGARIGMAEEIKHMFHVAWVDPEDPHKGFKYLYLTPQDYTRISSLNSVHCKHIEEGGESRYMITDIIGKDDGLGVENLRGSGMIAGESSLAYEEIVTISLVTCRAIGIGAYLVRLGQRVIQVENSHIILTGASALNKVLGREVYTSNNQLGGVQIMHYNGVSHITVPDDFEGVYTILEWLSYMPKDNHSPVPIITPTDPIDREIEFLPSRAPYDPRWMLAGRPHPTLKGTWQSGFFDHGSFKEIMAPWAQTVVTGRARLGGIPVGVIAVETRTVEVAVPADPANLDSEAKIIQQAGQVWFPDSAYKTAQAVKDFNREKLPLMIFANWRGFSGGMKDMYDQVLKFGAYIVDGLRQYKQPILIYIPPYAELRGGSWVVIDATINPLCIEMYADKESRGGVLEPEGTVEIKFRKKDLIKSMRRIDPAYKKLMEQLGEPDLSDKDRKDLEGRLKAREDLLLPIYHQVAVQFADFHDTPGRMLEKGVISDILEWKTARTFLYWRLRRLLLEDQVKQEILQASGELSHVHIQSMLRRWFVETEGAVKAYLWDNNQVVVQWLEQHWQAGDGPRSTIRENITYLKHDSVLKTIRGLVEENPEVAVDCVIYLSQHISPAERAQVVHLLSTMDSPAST

The term IC50 denotes the concentration that inhibits the measured activity by half. The term MIC denotes the lowest concentration that inhibits growth of the organism. Molecule `COc1ccccc1[C@H](Cn1c(=O)n(C(C)(C)C(=O)N2CCCC2)c(=O)c2c(C)c(-n3cccn3)sc21)OC1CCOCC1` [Compound I-12, (R)-1-(2-(2-methoxyphenyl)-2-((tetrahydro-2H-pyran-4-yl)oxy)ethyl)-5-methyl-3-(2-methyl-1-oxo-1-(pyrrolidin-1-yl)propan-2-yl)-6-(1H-pyrazol-1-yl)thieno[2,3-d]pyrimidine-2,4(1H,3H)-dione] showed a concentration for half-maximal inhibition (IC50) against human (hACC2) ACC2 of 3 to 10 nM. For the same molecule, the MIC in the assay on C. albicans ATCC 90028 is 2.1 to 4 µg/mL (≈ 3.38 to 6.43 µM); in the assay with C. krusei ATCC 6258, 2.1 to 4 µg/mL (≈ 3.38 to 6.43 µM); in assay [1], > 4.1 µg/mL. Besides, the IC90 in the assay on Botrtyis cinerea (Bc) (Table 4a) is > 50 µg/mL; in the assay on Botrtyis cinerea (Bc) (Table 4b), 10 µg/mL (≈ 16.1 µM); in assay [2] (Table 4a), 10 µg/mL (≈ 16.1 µM); in [2] (Table 4b) it was 2 µg/mL (≈ 3.22 µM); with Diplodia maydis (Dm) (Table 4a), > 50 µg/mL; in the assay on Diplodia maydis (Dm) (Table 4b), 10 µg/mL (≈ 16.1 µM). The IC90 in [3] (Table 4a) was 0.4 µg/mL (≈ 0.643 µM); in [3] (Table 4b), 0.4 µg/mL (≈ 0.643 µM); in assay [4] (Table 4a) it was > 50 µg/mL; in assay [4] (Table 4b), 10 µg/mL (≈ 16.1 µM); in [5], > 50 µg/mL; with Rhizoctonia solani (Rs) (Table 4a), 2 µg/mL (≈ 3.22 µM). The IC90 in the assay with Rhizoctonia solani (Rs) (Table 4b) is 2 µg/mL (≈ 3.22 µM); with Septoria tritici (St) it was > 50 µg/mL. In addition, in assay [5], the “Concentration at 90% Inhibition Pc” value is “D (“D” provided a compound concentration of >50 ppm at 90% inhibition of fungal pathogens)”. Further, the “Concentration at 90% Inhibition St” value with Septoria tritici (St) is “D (“D” provided a compound concentration of >50 ppm at 90% inhibition of fungal pathogens)”.

As to `COc1ccc(F)cc1[C@H](Cn1c(=O)n(C(C)(C)C(=O)NC(C)C)c(=O)c2c(C)c(-n3cccn3)sc21)O[C@H]1CC[C@@H](O)CC1` [Compound I-14, 2-(1-((R)-2-(5-fluoro-2-methoxyphenyl)-2-(((1s,4S)-4-hydroxycyclohexyl)oxy)ethyl)-5-methyl-2,4-dioxo-6-(1H-pyrazol-1-yl)-1,4-dihydro-thieno[2,3-d]pyrimidin-3(2H)-yl)-N-isopropyl-2-methylpropanamide], the IC50 at human (hACC2) ACC2 is 3 to 10 nM. Besides, the MIC in the assay on C. albicans ATCC 90028 lay within 0.25 to 1 µg/mL (≈ 0.39 to 1.56 µM); in the assay on C. krusei ATCC 6258, 1.1 to 2 µg/mL (≈ 1.71 to 3.12 µM); in assay [1], 0.25 to 1 µg/mL (≈ 0.39 to 1.56 µM). Besides, the IC90 in the assay with Botrtyis cinerea (Bc) (Table 4a) is 0.4 µg/mL (≈ 0.623 µM); in the assay with Botrtyis cinerea (Bc) (Table 4b) it was 0.4 µg/mL (≈ 0.623 µM); in [2] (Table 4a), > 50 µg/mL; in assay [2] (Table 4b), > 50 µg/mL; in the assay with Diplodia maydis (Dm) (Table 4a), 2 µg/mL (≈ 3.12 µM); in the assay with Diplodia maydis (Dm) (Table 4b), 2 µg/mL (≈ 3.12 µM). Further, the IC90 in [3] (Table 4a) was 0.08 µg/mL (≈ 0.125 µM); in assay [3] (Table 4b), 0.08 µg/mL (≈ 0.125 µM); in assay [4] (Table 4a), 2 µg/mL (≈ 3.12 µM); in assay [4] (Table 4b), 2 µg/mL (≈ 3.12 µM); in assay [5], > 50 µg/mL; in the assay with Rhizoctonia solani (Rs) (Table 4a), 2 µg/mL (≈ 3.12 µM). The IC90 in the assay on Rhizoctonia solani (Rs) (Table 4b) was 2 µg/mL (≈ 3.12 µM); in the assay on Septoria tritici (St), > 50 µg/mL. Besides, the “Concentration at 90% Inhibition Pc” value in assay [5] was “D (“D” provided a compound concentration of >50 ppm at 90% inhibition of fungal pathogens)”. Further, the “Concentration at 90% Inhibition St” value with Septoria tritici (St) is given as “D (“D” provided a compound concentration of >50 ppm at 90% inhibition of fungal pathogens)”.
